Test results published in the supplement of paper PMC12669032.

Columns and labels:
Assay in all cases: growth AUC relative to DMSO control (fraction); higher = more growth (less inhibition)
Conditions in all cases: 24 h
Eubacterium rectale = test system: Eubacterium rectale
Method: (§1)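 Validation screen: 11 independently purchased pesticides tested on 8 gut bacterial strains at 2.5–320 µM in mGAM, anaerobic, 37 °C, 24 h. Growth AUC normalised to DMSO controls, mean of 3 independent experiments.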

Clostridium difficile = test system: Clostridium difficile
Method: as §1

[1] = test system: Parabacteroides distasonis
Method: as §1

Lactobacillus gasseri = test system: Lactobacillus gasseri
Method: as §1

Escherichia coli IAI1 = test system: Escherichia coli IAI1
Method: as §1

Roseburia intestinalis = test system: Roseburia intestinalis
Method: as §1

Streptococcus salivarius = test system: Streptococcus salivarius
Method: as §1

Bacteroides uniformis = test system: Bacteroides uniformis
Method: as §1

CCCN(CCOc1c(Cl)cc(Cl)cc1Cl)C(=O)n1ccnc1 [PROCHLORAZ]
growth AUC
Conditions | Bacteroides uniformis | Clostridium difficile | Escherichia coli IAI1 | Eubacterium rectale | Lactobacillus gasseri | Roseburia intestinalis | Streptococcus salivarius | [1]
2.5 µM | 1 | 0.989 | 1 | 0.748 | 1.01 | 0.993 | 1.01 | 0.957
5 µM | 0.994 | 0.977 | 0.987 | 0.524 | 1 | 1.02 | 0.995 | 0.858
10 µM | 0.938 | 0.956 | 0.966 | 0.397 | 0.944 | 0.949 | 0.973 | 0.68
20 µM | 0.92 | 1.01 | 0.956 | 0.125 | 0.931 | 0.718 | 0.945 | 0.608
40 µM | 0.886 | 0.875 | 0.988 | 0.0225 | 0.957 | 0.594 | 0.984 | 0.363
80 µM | 0.812 | 0.913 | 0.989 | 0.0308 | 0.903 | 0.0292 | 0.962 | 0.0195
160 µM | 0.767 | 0.391 | 0.983 | 0.0176 | 0.836 | 0.0197 | 0.935 | 0.0246

N#Cc1c(Cl)c(Cl)c(Cl)c(C#N)c1Cl [CHLOROTHALONIL]
growth AUC
Conditions | Bacteroides uniformis | Clostridium difficile | Escherichia coli IAI1 | Eubacterium rectale | Lactobacillus gasseri | Roseburia intestinalis | Streptococcus salivarius | [1]
2.5 µM | 1.04 | 1.03 | 1.02 | 1.07 | 1.02 | 0.978 | 1.08 | 1.13
5 µM | 1.01 | 1.01 | 0.986 | 0.894 | 1.03 | 1.01 | 0.963 | 1.04
10 µM | 0.981 | 0.963 | 1.01 | 0.836 | 1 | 0.91 | 1 | 0.921
20 µM | 0.889 | 0.993 | 0.974 | 0.593 | 0.925 | 0.713 | 0.907 | 0.961

CC[C@H](C)[C@H]1O[C@]2(C=C[C@@H]1C)C[C@@H]1C[C@@H](C/C=C(\C)[C@@H](O[C@H]3C[C@H](OC)[C@@H](O[C@H]4C[C@H](OC)[C@@H](NC)[C@H](C)O4)[C@H](C)O3)[C@@H](C)/C=C/C=C3\CO[C@@H]4[C@H](O)C(C)=C[C@@H](C(=O)O1)[C@]34O)O2.O=C(O)c1ccccc1 [EMAMECTIN BENZOATE]
growth AUC
Conditions | Bacteroides uniformis | Clostridium difficile | Escherichia coli IAI1 | Eubacterium rectale | Lactobacillus gasseri | Roseburia intestinalis | Streptococcus salivarius | [1]
2.5 µM | 1.03 | 1.01 | 1.06 | 1.03 | 1.01 | 0.859 | 1.08 | 1.09
5 µM | 1.04 | 0.987 | 1.02 | 1.04 | 1.01 | 0.396 | 1 | 0.898
10 µM | 0.992 | 0.916 | 1 | 0.693 | 0.949 | 0.0369 | 1.02 | 0.487
20 µM | 1.03 | 0.967 | 0.979 | 0.0185 | 0.822 | 0.0348 | 0.938 | 0.0163
40 µM | 0.839 | 0.654 | 1.05 | 0.0159 | 0.848 | 0.0127 | 1.14 | 0.00619
80 µM | 0.669 | 0.0139 | 1.04 | 0.0289 | 1.02 | 0.00913 | 1.16 | 0.0234
160 µM | 0.732 | 0.0469 | 1.06 | 0.126 | 1.07 | 0.0441 | 1.27 | 0.0419
